Results published in patent US8952169B2 (Genentech, Inc., priority 2012, dated 2015).

Biological target: hNav1.7 (Homo sapiens (Human), UniProt Q15858)
Test: Tritiated aryl sulfonamide binding to membranes from cells expressing hNav1.7 and the β1 subunit (competitive binding)
Conditions: membranes with hNav1.7 and β1 subunit; [3H]compound displacement, 18 h, room temperature; read-out: NaV1.7 395 Memb Binding (IC50)
Description: Tritiated Aryl Sulfonamide Binding to Membranes Isolated from Cells that Heterologously Express hNav1.7 and the β1 Subunit
Preparation of membranes containing recombinantly expressed sodium channels: Frozen recombinant cell pellets were thawed on ice and diluted to 4 times the cell pellet weight with ice cold 50 mM Tris HCl, pH 7.4 buffer. The cell suspensions were homogenized on ice using a motorized glass dounce homogeniser. Homogenates were further diluted 8.4 times with ice cold 50 mM Tris HCl, pH 7.4 buffer and then centrifuged at 200×g at 4° C. for 15 min. The supernatants were collected and centrifuged at 10000×g at 4° C. for 50 min. The pellets were then re-suspended in 100 mM NaCl, 20 mM Tris HCl, pH 7.4 buffer containing 1% v/v protease inhibitors (Calbiochem) and re-homogenized on ice. The homogenized membranes were then processed through a syringe equipped with a 26 gauge needle. Protein concentrations were determined by Bradford Assay and the membranes were stored at −80° C.
Radioligand Binding Studies: Saturation experiments. A representative compound of formula (I) was tritiated. Three tritiums were incorporated in place of methyl hydrogens to generate [^3H]compound. Binding of this radioligand was preformed in 5 mL borosilicate glass test tubes at room temperature. Binding was initiated by adding membranes to increasing concentrations of [^3H]compound in 100 mM NaCl, 20 mM Tris HCl, pH 7.4 buffer containing 0.01% w/v bovine serum albumin (BSA) for 18 h. Non-specific binding was determined in the presence of 1 μM unlabelled compound. After 18 h, the reactants were filtered through GF/C glass fiber filters presoaked in 0.5% w/v polyethylene imine. […] [^3H]compound bound to filters was quantified by liquid scintillation counting.
Competitive binding experiments. Binding reactions were preformed in 96-well polypropylene plates at room temperature for 18 h. In 360 μL, membranes were incubated with 100 μM [^3H]compound and increasing concentrations of Test Compound. Non-specific binding was defined in the presence of 1 μM unlabelled compound. Reactions were transferred and filtered through 96-well glass fiber/C filter plates presoaked with 0.5% polyethylene imine. The filtered reactions were washed 5 times with 200 L ice cold buffer containing 0.25% BSA. Bound radioactivity was determined by liquid scintillation counting.
Data Analysis: For saturation experiments, non-specific binding was subtracted from total binding to provide specific binding and these values were recalculated in terms of pmol ligand bound per mg protein. Saturation curves were constructed and dissociation constants were calculated using the single site ligand binding model: Beq=(Bmax*X)/(X+Kd), where Beq is the amount of ligand bound at equilibrium, Bmax is the maximum receptor density, Kd is the dissociation constant for the ligand, and X is the free ligand concentration.

Sequence of hNav1.7 (Q15858 whole entry, looked up): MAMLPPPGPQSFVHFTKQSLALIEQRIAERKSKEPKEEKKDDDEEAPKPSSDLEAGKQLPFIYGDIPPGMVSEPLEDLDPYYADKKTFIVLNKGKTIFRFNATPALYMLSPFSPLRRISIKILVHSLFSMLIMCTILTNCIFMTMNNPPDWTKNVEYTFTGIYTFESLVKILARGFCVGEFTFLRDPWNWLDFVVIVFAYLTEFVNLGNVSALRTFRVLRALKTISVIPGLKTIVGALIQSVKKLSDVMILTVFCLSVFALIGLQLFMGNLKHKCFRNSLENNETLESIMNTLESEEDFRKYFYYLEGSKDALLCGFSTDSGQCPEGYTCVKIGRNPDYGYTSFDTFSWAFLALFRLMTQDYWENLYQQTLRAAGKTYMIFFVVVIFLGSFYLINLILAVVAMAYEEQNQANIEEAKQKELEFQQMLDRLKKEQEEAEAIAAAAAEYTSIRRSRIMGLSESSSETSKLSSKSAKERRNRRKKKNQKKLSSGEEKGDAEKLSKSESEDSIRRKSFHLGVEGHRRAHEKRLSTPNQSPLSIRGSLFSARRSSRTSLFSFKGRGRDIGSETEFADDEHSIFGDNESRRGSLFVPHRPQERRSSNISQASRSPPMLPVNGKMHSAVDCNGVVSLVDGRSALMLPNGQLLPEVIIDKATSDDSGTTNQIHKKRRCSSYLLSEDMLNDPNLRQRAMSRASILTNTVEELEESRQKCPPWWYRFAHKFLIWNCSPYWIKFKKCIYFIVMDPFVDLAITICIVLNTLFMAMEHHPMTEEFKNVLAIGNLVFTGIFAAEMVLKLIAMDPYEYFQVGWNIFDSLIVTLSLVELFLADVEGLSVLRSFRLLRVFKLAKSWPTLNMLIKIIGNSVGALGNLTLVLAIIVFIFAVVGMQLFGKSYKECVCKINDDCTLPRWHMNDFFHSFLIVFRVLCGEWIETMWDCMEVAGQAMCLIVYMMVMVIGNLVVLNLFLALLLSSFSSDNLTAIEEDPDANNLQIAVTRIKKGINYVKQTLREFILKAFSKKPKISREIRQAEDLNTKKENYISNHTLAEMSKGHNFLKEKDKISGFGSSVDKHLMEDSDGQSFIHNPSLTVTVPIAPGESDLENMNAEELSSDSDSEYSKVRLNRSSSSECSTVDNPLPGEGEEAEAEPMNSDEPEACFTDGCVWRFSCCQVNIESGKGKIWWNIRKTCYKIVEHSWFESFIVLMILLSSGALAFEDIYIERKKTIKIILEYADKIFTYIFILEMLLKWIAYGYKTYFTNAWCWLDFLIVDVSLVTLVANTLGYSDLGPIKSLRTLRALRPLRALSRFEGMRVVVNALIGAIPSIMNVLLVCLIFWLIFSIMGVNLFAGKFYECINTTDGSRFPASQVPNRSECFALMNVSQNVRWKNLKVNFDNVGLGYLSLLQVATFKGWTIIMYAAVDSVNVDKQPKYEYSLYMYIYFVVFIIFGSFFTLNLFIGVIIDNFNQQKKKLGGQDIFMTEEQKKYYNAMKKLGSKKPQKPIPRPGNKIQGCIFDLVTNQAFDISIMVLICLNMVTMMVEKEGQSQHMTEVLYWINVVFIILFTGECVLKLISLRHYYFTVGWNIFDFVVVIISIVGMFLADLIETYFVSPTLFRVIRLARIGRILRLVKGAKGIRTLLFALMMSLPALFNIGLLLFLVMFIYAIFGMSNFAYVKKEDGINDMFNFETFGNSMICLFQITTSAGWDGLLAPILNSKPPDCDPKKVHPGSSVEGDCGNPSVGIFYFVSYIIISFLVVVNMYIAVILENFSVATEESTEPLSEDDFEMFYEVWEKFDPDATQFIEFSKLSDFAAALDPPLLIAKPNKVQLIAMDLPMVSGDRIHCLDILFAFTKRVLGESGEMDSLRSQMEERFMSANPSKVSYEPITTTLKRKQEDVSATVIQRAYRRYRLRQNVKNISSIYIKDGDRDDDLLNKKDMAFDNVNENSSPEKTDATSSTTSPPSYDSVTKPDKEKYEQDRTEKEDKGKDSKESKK
Sequence of hNav1.7 (Q07699 whole entry partner, looked up): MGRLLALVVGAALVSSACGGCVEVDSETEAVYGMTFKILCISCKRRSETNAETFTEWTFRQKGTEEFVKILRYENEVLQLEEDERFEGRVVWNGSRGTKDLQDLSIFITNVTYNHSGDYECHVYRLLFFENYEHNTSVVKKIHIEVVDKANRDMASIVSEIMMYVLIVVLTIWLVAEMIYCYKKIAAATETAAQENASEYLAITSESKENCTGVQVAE

Row | SMILES | IC50 [nM]
1 | CN(C)S(=O)(=O)NC(=O)c1cc(Cl)c(OCC2CCCCC2)cc1F | 322
2 | CN(C)S(=O)(=O)NC(=O)c1cc(Cl)c(OCC2CCCC2)cc1F | 672
3 | CS(=O)(=O)NC(=O)c1cc(Cl)c(OCC2(C(F)(F)F)CC2)cc1F | 603
4 | COc1ncccc1-c1cc(C(=O)NS(C)(=O)=O)ccc1OCC12CC3CC(CC(C3)C1)C2 | 803
5 | CC1(C)C(COc2ccc(C(=O)NS(C)(=O)=O)cc2Cl)C1(C)C | 181
6 | CS(=O)(=O)NC(=O)c1cc(Cl)c(O[C@@H]2C[C@@H]3CC[C@H]2C3)cc1F | 167
7 | CC1(C)[C@H]2CC[C@](C)(C2)[C@H]1Oc1cc(F)c(C(=O)NS(C)(=O)=O)cc1Cl | 7120
8 | CC(C)[C@H]1CC[C@H](C)C[C@@H]1Oc1cc(F)c(C(=O)NS(C)(=O)=O)cc1Cl | 1320
9 | CS(=O)(=O)NC(=O)c1cc(Cl)c(OC2CC3CCC2C3)cc1F (stereo not drawn) | 491
10 | CS(=O)(=O)NC(=O)c1cc(Cl)c(OC2CC3CC2C2CCCC32)cc1F (stereo not drawn) | 205
11 | CN(C)S(=O)(=O)NC(=O)c1cc(Cl)c(O[C@@H]2C[C@@H]3CC[C@@]2(C)C3(C)C)cc1F | 230
12 | CN(C)S(=O)(=O)NC(=O)c1cc(Cl)c(OC2C3CC4CC2CC(Cl)(C4)C3)cc1F (stereo not drawn) [listing 1 of 2 here] | 283
13 | CN(C)S(=O)(=O)NC(=O)c1cc(Cl)c(OCCC2CCCC2)cc1F | 542
14 | CN(C)S(=O)(=O)NC(=O)c1cc(Cl)c(OC2C3CC4CC2CC(Cl)(C4)C3)cc1F (stereo not drawn) [listing 2 of 2 here] | 419
15 | CN(C)S(=O)(=O)NC(=O)c1cc(Cl)c(OCCC2CCCCCC2)cc1F | 210
16 | CN(C)S(=O)(=O)NC(=O)c1cc(Cl)c(OCCCC2CCCCC2)cc1F | 295
17 | CN(C)S(=O)(=O)NC(=O)c1cc(Cl)c(OC2CCC3(CCCCC3)CC2)cc1F | 281
18 | CN(C)S(=O)(=O)NC(=O)c1cc(Cl)c(OC2CCC3(CCCC3)CC2)cc1F | 273
19 | CN(C)S(=O)(=O)NC(=O)c1cc(Cl)c(OC2CCC(C(F)(F)F)CC2)cc1F (stereo not drawn) | 3520
20 | CN(C)S(=O)(=O)NC(=O)c1cc(Cl)c(OCCCC2CCCC2)cc1F | 300
21 | CS(=O)(=O)NC(=O)c1cc(Cl)c(OCC2CCC(F)(F)CC2)cc1F | 558

Second part, the compound after the results:

Row | IC50 [nM] | SMILES
22 | 53 | CS(=O)(=O)NC(=O)c1cc(Cl)c(OCC23CC4CC(CC(Cl)(C4)C2)C3)cc1F
23 | 158 | CS(=O)(=O)NC(=O)c1cc(Cl)c(OC[C@H]2CC[C@H](C(F)(F)F)CC2)cc1F
24 | 44 | CC1(C)[C@H]2CC[C@@H](COc3cc(F)c(C(=O)NS(C)(=O)=O)cc3Cl)[C@@H]1C2
25 | 17 | CS(=O)(=O)NC(=O)c1cc(Cl)c(OCC2C3CC4CC(C3)CC2C4)cc1F (stereo not drawn)
26 | 86 | CS(=O)(=O)NC(=O)c1cc(Cl)c(COc2ccc3c(c2)CCCC3)cc1F
27 | 117 | CC1(C)[C@H]2CC=C(COc3cc(F)c(C(=O)NS(C)(=O)=O)cc3Cl)[C@@H]1C2
28 | 80 | CS(=O)(=O)NC(=O)c1cc(Cl)c(OCC2CC3CCC2C3)cc1F (stereo not drawn)
29 | 44 | CS(=O)(=O)NC(=O)c1cc(Cl)c(OCC2CCCCCC2)cc1F
30 | 9 | CCCCCC12CCC(COc3cc(F)c(C(=O)NS(C)(=O)=O)cc3Cl)(CC1)CC2
31 | 57 | CC(C)[C@H]1CC[C@H](Oc2cc(F)c(C(=O)NS(C)(=O)=O)cc2Cl)CC1
32 | 93 | CC1(C)CCCC(Oc2cc(F)c(C(=O)NS(C)(=O)=O)cc2Cl)C1 (stereo not drawn)
33 | 166 | CC1(C)CCC(Oc2cc(F)c(C(=O)NS(C)(=O)=O)cc2Cl)CC1
34 | 138 | CC(C)[C@H]1CC[C@H](Oc2cc(F)c(C(=O)NS(=O)(=O)N(C)C)cc2Cl)CC1
35 | 67 | CS(=O)(=O)NC(=O)c1cc(Cl)c(OC2CCC3(CCCCC3)CC2)cc1F
36 | 166 | CN(C)S(=O)(=O)NC(=O)c1cc(Cl)c(OCCC23CC4CC(CC(C4)C2)C3)cc1F
37 | 27 | CS(=O)(=O)NC(=O)c1cc(Cl)c(OCC23CC4CC(C2)C(F)(F)C(C4)C3)cc1F
38 | 17 | CS(=O)(=O)NC(=O)c1cc(Cl)c(OCC2CCC3(CCC3)CC2)cc1F
39 | 51 | CN(C)S(=O)(=O)NC(=O)c1cc(Cl)c(OCC2C3CC4CC(C3)CC2C4)cc1F (stereo not drawn)
